test system: L5178Y; assay: Concentration required for inhibition of murine leukemia L5178Y cells; type: functional, Mus musculus

Point of comparison: `COc1cccc(OCc2cccc(N3C(N)=NC(N)=NC3(C)C)c2)c1`, “Log 1/C” value 8.02. Against it:
- CCCCCCCCCOc1cccc(N2C(N)=NC(N)=NC2(C)C)c1 — lower, 6.93
- CC(C)c1cccc(OCc2cccc(N3C(N)=NC(N)=NC3(C)C)c2)c1 — within 0.2 log units, 8.13
- CC1(C)N=C(N)N=C(N)N1c1cccc(CNc2cc(C(N)=O)cc(C(N)=O)c2)c1 — lower, 7.01
- Cc1cccc(OCc2cccc(N3C(N)=NC(N)=NC3(C)C)c2)c1 — within 0.2 log units, 8.16
- CC1(C)N=C(N)N=C(N)N1c1cccc(COc2cccc(NC(N)=O)c2)c1 — within 0.2 log units, 8.18
- CC1(C)N=C(N)N=C(N)N1c1cccc(OCCOc2cccc(C(F)(F)F)c2)c1 — lower, 7.37
- CC(=O)Nc1cccc(OCc2cccc(N3C(N)=NC(N)=NC3(C)C)c2)c1 — higher, 8.66
- CC1(C)N=C(N)N=C(N)N1c1cccc([N+](=O)[O-])c1 — lower, 7.66
- CC1(C)N=C(N)N=C(N)N1c1cccc(C(N)=O)c1 — lower, 6.1
- CC1(C)N=C(N)N=C(N)N1c1cccc(C(O)c2ccccc2)c1 (stereo not drawn) — lower, 6.41
- CC1(C)N=C(N)N=C(N)N1c1cccc(OCCOc2ccccc2)c1 — lower, 7.34
- CC1(C)N=C(N)N=C(N)N1c1cccc(F)c1 — within 0.2 log units, 7.94
- CC(C)(C)c1cccc(N2C(N)=NC(N)=NC2(C)C)c1 — lower, 7.59
- CC1(C)N=C(N)N=C(N)N1c1cccc(Br)c1 — higher, 8.42
- CCOC(=O)c1cccc(N2C(N)=NC(N)=NC2(C)C)c1 — within 0.2 log units, 8.13
- CC1(C)N=C(N)N=C(N)N1c1cccc(I)c1 — higher, 8.4
- CC1(C)N=C(N)N=C(N)N1c1cccc(OCc2ccc(Cl)c(Cl)c2)c1 — lower, 7.15
- CC1(C)N=C(N)N=C(N)N1c1cccc(COc2ccccc2)c1 — within 0.2 log units, 8.2
- CCc1cccc(OCc2cccc(N3C(N)=NC(N)=NC3(C)C)c2)c1 — within 0.2 log units, 8.11
- CC1(C)N=C(N)N=C(N)N1c1cccc(COc2cccc(C#N)c2)c1 — within 0.2 log units, 8.09
- CCCCCCCCCCCCOc1cccc(N2C(N)=NC(N)=NC2(C)C)c1 — lower, 6.41
- CC(C)(C)c1cccc(OCc2cccc(N3C(N)=NC(N)=NC3(C)C)c2)c1 — lower, 7.3
- CC1(C)N=C(N)N=C(N)N1c1cccc(COc2cccc(NC(=N)S)c2)c1 — within 0.2 log units, 8.08
- CC1(C)N=C(N)N=C(N)N1c1ccc(OCc2cccc(C(N)=O)c2)c(Cl)c1 — lower, 7.53
- CC1(C)N=C(N)N=C(N)N1c1cccc(COc2cccc(Cl)c2)c1 — within 0.2 log units, 8.1
- CC1(C)N=C(N)N=C(N)N1c1cccc(COc2cccc(CO)c2)c1 — higher, 8.32
- CC1(C)N=C(N)N=C(N)N1c1cccc(OCCCCOc2cccc(C(F)(F)F)c2)c1 — lower, 7.14
- CC(=O)c1cccc(N2C(N)=NC(N)=NC2(C)C)c1 — lower, 6.96
- CC1(C)N=C(N)N=C(N)N1c1cccc(OCCCCOc2ccccc2)c1 — lower, 6.97
- Cc1cccc(N2C(N)=NC(N)=NC2(C)C)c1 — within 0.2 log units, 8.01
- CC1(C)N=C(N)N=C(N)N1c1cccc(OCc2ccccc2)c1 — lower, 7.78
- CN(Cc1cnc2nc(N)nc(N)c2n1)c1ccc(C(=O)N[C@@H](CCC(=O)O)C(=O)O)cc1 [METHOTREXATE] — higher, 8.89
